From patent US11525018B2, “Methods of preparing compositions for containers and other articles and methods of using same” (SWIMC LLC, priority 2014, dated 2022)

System: MCF-7, clone WS8, cells
Assay: MCF-7 cell proliferation assay of estrogenic activity
Assay type: cell-based, human
Conditions: logarithmic (base 10) Relative Proliferative Effect vs 17-beta estradiol (EC50 ratio times 100), cell proliferation as total DNA; values 'expected or measured'
Excerpt: The MCF-7 assay is a useful test for assessing whether a polyhydric phenol compound is appreciably non-estrogenic. The MCF-7 assay uses MCF-7, clone WS8, cells to measure whether and to what extent a substance induces cell proliferation via estrogen receptor (ER)-mediated pathways. The method is described in “Test Method Nomination: MCF-7 Cell Proliferation Assay of Estrogenic Activity” submitted for validation by CertiChem, Inc. to the National Toxicology Program Interagency Center for the Evaluation of Alternative Toxicological Methods (NICEATM) on Jan. 19, 2006 (available online at http://iccvam.niehs.nih.gov/methods/endocrine/endodocs/SubmDoc.pdf).
A brief summary of the method of the aforementioned MCF-7 assay is provided below. MCF-7, clone WS8, cells are maintained at 37° C. in RMPI (or Roswell Park Memorial Institute medium) containing Phenol Red (e.g., GIBCO Catalog Number 11875119) and supplemented with the indicated additives for routine culture. An aliquot of cells maintained at 37° C. are grown for 2 days in phenol-free media containing 5% charcoal stripped fetal bovine serum in a 25 cm^2 tissue culture flask. Using a robotic dispenser such as an epMotion 5070 unit, MCF-7 cells are then seeded at 400 cells per well in 0.2 ml of hormone-free culture medium in Corning 96-well plates. The cells are adapted for 3 days in the hormone-free culture medium prior to adding the chemical to be assayed for estrogenic activity. The media containing the test chemical is replaced daily for 6 days. At the end of the 7-day exposure to the test chemical, the media is removed, the wells are washed once with 0.2 ml of HBSS (Hanks' Balanced Salt Solution), and then assayed to quantify amounts of DNA per well using a micro-plate modification of the Burton diphenylamine (DPA) assay, which is used to calculate the level of cell proliferation.
RPE is the ratio between the EC50 of the test chemical and the EC50 of the control substance 17-beta estradiol times 100, where EC50 is “effective concentration 50%” or half-maximum stimulation concentration for cell proliferation measured as total DNA in the MCF-7 assay.
In the case of C[C@]12CC[C@@H]3c4ccc(O)cc4CC[C@H]3[C@@H]1CC[C@@H]2O [17β-estradiol, reference compound], the “Log RPE” value is reported as 2.00. In the case of Oc1ccc(Cc2ccc(O)cc2)cc1 [Bisphenol F, reference compound], the “Log RPE” value is reported as −2. For O=S(=O)(c1ccc(O)cc1)c1ccc(O)cc1 [Bisphenol S, reference compound], the “Log RPE” value was −2. In the case of O=C(OCC1CCC(COC(=O)c2cccc(O)c2)CC1)c1cccc(O)c1 (stereo not shown) [Example 2, Run III, bis(3-hydroxybenzoate) of Cyclohexanedimethanol], the “Log RPE” value is reported as “less than −4”. With O=c1c(-c2ccc(O)cc2)coc2cc(O)cc(O)c12 [Genistein, reference compound] the “Log RPE” value was −2. For Cc1cc(C(C)(C)c2cc(C)c(O)c(C)c2)cc(C)c1O [Structure 1], the “Log RPE” value was −2. With Cc1cc(CCc2cc(C)c(O)c(C)c2)cc(C)c1O [Structure 2] the “Log RPE” value was −3. With CC(c1ccc(O)cc1)(c1ccc(O)cc1)c1ccc(O)cc1 [Structure 3] the “Log RPE” value was −3. In the case of CC(c1ccccc1)(c1ccc(O)cc1)c1ccc(O)cc1 [Structure 4], the “Log RPE” value is reported as −3. For CC(C(=O)O)(c1ccc(O)cc1)c1ccc(O)cc1 [Structure 5], the “Log RPE” value was “less than −4”. For Cc1cc(Cc2cc(C)c(O)c(C)c2)cc(C)c1O [Structure 6], the “Log RPE” value was “less than −4”. For CCCC(c1cc(C(C)(C)C)c(O)cc1C)c1cc(C(C)(C)C)c(O)cc1C [Structure 7], the “Log RPE” value was “less than −4”. For Cc1cc(Cc2cc(C)cc(C(C)(C)C)c2O)c(O)c(C(C)(C)C)c1 [Structure 9], the “Log RPE” value was “less than −4”. With CC(C)(c1ccc(O)cc1)c1ccc(C(C)(C)c2ccc(O)cc2)cc1 [Structure 10] the “Log RPE” value was “less than −4”. With Oc1ccccc1Cc1ccccc1O [Structure 11] the “Log RPE” value was “less than −4”. For CC(C)(C)c1cc(O)c(C(C)(C)C)cc1O [Structure 12], the “Log RPE” value was “less than −4”. With Cc1cc(Cc2cc(C)cc(C3(C)CCCCC3)c2O)c(O)c(C2(C)CCCCC2)c1 [Structure 13] the “Log RPE” value was “less than −4”. With CCc1cc(Cc2cc(CC)cc(C(C)(C)C)c2O)c(O)c(C(C)(C)C)c1 [Structure 15] the “Log RPE” value was “less than −4”. For CC(C)(c1cc(Br)c(O)c(Br)c1)c1cc(Br)c(O)c(Br)c1 [Structure 16], the “Log RPE” value was −3. With C/C=C(/C(=C/C)c1ccc(O)cc1)c1ccc(O)cc1 [dienestrol, reference compound] the “Log RPE” value was “about 2”. In the case of CC/C(=C(/CC)c1ccc(O)cc1)c1ccc(O)cc1 [diethylstilbestrol, reference compound], the “Log RPE” value is reported as “about 2”.

Target: T1, human estrogen receptor (Homo sapiens, UniProt P03372)
T1 sequence (P03372 1-595): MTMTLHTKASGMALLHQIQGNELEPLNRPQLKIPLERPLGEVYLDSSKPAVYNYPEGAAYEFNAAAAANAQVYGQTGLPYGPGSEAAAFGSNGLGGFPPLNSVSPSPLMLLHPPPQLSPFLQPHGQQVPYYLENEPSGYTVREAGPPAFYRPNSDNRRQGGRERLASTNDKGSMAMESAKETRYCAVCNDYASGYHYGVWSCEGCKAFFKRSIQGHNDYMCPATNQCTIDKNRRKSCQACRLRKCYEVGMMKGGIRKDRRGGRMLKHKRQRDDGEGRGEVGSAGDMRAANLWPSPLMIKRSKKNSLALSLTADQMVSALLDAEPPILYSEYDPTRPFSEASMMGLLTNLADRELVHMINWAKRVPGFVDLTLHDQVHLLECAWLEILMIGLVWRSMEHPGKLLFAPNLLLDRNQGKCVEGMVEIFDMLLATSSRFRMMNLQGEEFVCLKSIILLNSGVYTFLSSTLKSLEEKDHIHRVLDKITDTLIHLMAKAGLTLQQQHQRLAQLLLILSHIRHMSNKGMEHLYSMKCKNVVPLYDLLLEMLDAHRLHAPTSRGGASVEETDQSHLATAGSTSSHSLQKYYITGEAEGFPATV
Assay: suitable in vitro assay correlated to the MCF-7 assay (estrogenic activity)
Assay type: cell-based
Conditions: in vitro assay whose results are directly correlated to the MCF-7 assay through common reference compounds
For Cc1cc(Cc2cc(C)c(O)c(C)c2)cc(C)c1O [Structure 6, 4,4′-methylenebis(2,6-dimethylphenol)], the estrogenic activity was “do not exhibit appreciable estrogenic activity”. With CCCC(c1cc(C(C)(C)C)c(O)cc1C)c1cc(C(C)(C)C)c(O)cc1C [Structure 7, 4,4′-butylidenebis(2-t-butyl-5-methylphenol)] the estrogenic activity was “do not exhibit appreciable estrogenic activity”. In the case of CC(C)(C)c1cc(Cc2cc(C(C)(C)C)c(O)c(C(C)(C)C)c2)cc(C(C)(C)C)c1O [Structure 8, 4,4′-methylenebis(2,6-di-t-butylphenol)], the estrogenic activity is reported as “do not exhibit appreciable estrogenic activity”. With Cc1cc(Cc2cc(C)cc(C(C)(C)C)c2O)c(O)c(C(C)(C)C)c1 [Structure 9] the estrogenic activity was “do not exhibit appreciable estrogenic activity”. For CC(C)(C)c1cc(O)c(C(C)(C)C)cc1O [Structure 12, 2,5-di-t-butylhydroquinone], the estrogenic activity was “do not exhibit appreciable estrogenic activity”.

System: not listed separately
Assay: suitable genotoxicity assays (e.g., Ames II assay)
Conditions: not given
Experimental: A solution of 4,4′-methylenebis(2,6-di-t-butylphenol) (500 grams, 1.076 moles obtained from Albemarle Corporation) in anhydrous dimethylformamide (1.5 liters) was cooled to −10° C. and a solution of sodium tert-pentoxide (374 grams, 3.23 moles) in anhydrous dimethylformamide (1.5 liters) was added drop wise at −10 to −5° C. The mixture was stirred for 30 minutes at −10° C. Epichlorohydrin (1.9 liters, 24.2 moles) was added via dropping funnel at −10 to −5° C. The solution was allowed to warm up to room temperature and then was heated for 16 hours at a temperature of from 75 to 82° C. After cooling down to ambient temperature, the mixture was added to cold tap water (12 liters). Ethyl acetate (5 liters) was added to the mixture, which was stirred for 10 minutes and separated. The aqueous layer was extracted again with additional ethyl acetate (3 liters). The combined ethyl acetate extracts were washed twice with brine (2×6 liters), dried over anhydrous sodium sulfate (600 grams), and filtered. The solvent was removed under reduced pressure to give 887 grams of crude product as a purple oil. The crude product was dissolved in toluene (600 milliliters) and passed over a silica gel pad (1.4 kilograms), and eluted with a mixture of toluene and heptane (8 parts toluene to 2 parts heptane). The fractions containing product were combined and evaporated under reduced pressure. […]
With CC(C)(C)c1cc(Cc2cc(C(C)(C)C)c(OCC3CO3)c(C(C)(C)C)c2)cc(C(C)(C)C)c1OCC1CO1 (stereo not shown) [Diglycidyl ether of 4,4′-methylenebis(2,6-di-tert-butylphenol)] the genotoxicity was “non-genotoxic”. With CCCC(c1cc(C(C)(C)C)c(OCC2CO2)cc1C)c1cc(C(C)(C)C)c(OCC2CO2)cc1C (stereo not shown) [Diglycidyl ether of 4,4′Butylidenebis(2-t-butyl-5-methylphenol))] the genotoxicity was “non-genotoxic”.
